From the NIST ThermoML archive (doi:10.1021/je500696p)

Legend:
[1] = xn = mol fraction of the nth substance listed; conditions: 100 kPa, Liquid, Vibrating tube method, x1 = 1
[2] = excess molar enthalpy (molar enthalpy of mixing); xn = mol fraction of the nth substance listed; conditions: 308.15 K, 100 kPa, Liquid, Calvet calorimetry

CCCO [propan-1-ol] + CCCC[N+](C)(C)C.O=S(=O)([N-]S(=O)(=O)C(F)(F)F)C(F)(F)F
[1]
Conditions	mass density [kg/m3]
293.15 K	803.6
295.15 K	802.1
298.15 K	799.7
303.15 K	795.6
308.15 K	791.6
313.15 K	787.5
318.15 K	783.4
323.15 K	779.2
328.15 K	774.9
333.15 K	770.6

CCO [ethanol] + CCCC[N+](C)(C)C.O=S(=O)([N-]S(=O)(=O)C(F)(F)F)C(F)(F)F
[1]
Conditions	mass density [kg/m3]
293.15 K	789.6
295.15 K	787.9
298.15 K	785.3
303.15 K	781
308.15 K	776.7
313.15 K	772.3
318.15 K	767.9
323.15 K	763.5
328.15 K	758.9
333.15 K	754.4

CCCC[N+](C)(C)C.O=S(=O)([N-]S(=O)(=O)C(F)(F)F)C(F)(F)F [butyltrimethylammonium bis(trifluoromethylsulfonyl)imide] + C[S+](C)[O-]
[2]
Conditions	excess molar enthalpy [kcal/mol]
x2 = 0.1288	-0.027
x2 = 0.2255	-0.0416
x2 = 0.2609	-0.0459
x2 = 0.3095	-0.0511
x2 = 0.3626	-0.0593
x2 = 0.4382	-0.0629
x2 = 0.4941	-0.0667
x2 = 0.4983	-0.0638
x2 = 0.5007	-0.0643
x2 = 0.559	-0.0684
x2 = 0.5642	-0.0679
x2 = 0.5646	-0.0691
x2 = 0.6132	-0.0629
x2 = 0.6267	-0.0619
x2 = 0.7533	-0.0399
x2 = 0.7693	-0.037
x2 = 0.8684	-0.0155

CN(C)C=O [dimethylformamide] + CCCC[N+](C)(C)C.O=S(=O)([N-]S(=O)(=O)C(F)(F)F)C(F)(F)F
[1]
Conditions	mass density [kg/m3]
293.15 K	948.7
295.15 K	946.8
298.15 K	943.9
303.15 K	939.1
308.15 K	934.4
313.15 K	929.6
318.15 K	924.8
323.15 K	920
328.15 K	915.2
333.15 K	910.4
